Columns and labels:
[1] = compiled from internet websites and Aspen Properties v2004.1; cited from earlier work
[2] = Solvent characteristics (hydrophobic / polar / hydrophilic / complex); format: physicochemical
Description: […] conceptual segments were defined for nonelectrolyte molecules: a hydrophobic segment, a polar segment, a hydrophilic segment and a solvation segment. […] Real molecules in turn are used as reference molecules for the conceptual segments and available phase equilibrium data of these reference molecules are used to identify NRTL binary parameters for the conceptual segments. […] The study was focused on the 59 ICH solvents used in pharmaceutical process design.
Hydrocarbon solvents (aliphatic or aromatic), halogenated hydrocarbons, and ethers are mainly hydrophobic. Ketones, esters and amides are both hydrophobic and polar. Alcohols, glycols, and amines may have both substantial hydrophilicity and hydrophobicity. Acids are complex, with hydrophilicity, polarity, and hydrophobicity.

[3] = cited from earlier work

Molecule	dielectric constant at 298.15 K [1]	Solvent characteristics [2]	solubility ([3]; in chloroform and DMF, 298.15K)	solubility (data) ([3]; in benzene, cyclohexane, and heptane)
CC(Cl)(Cl)Cl [1,1,1-TRICHLOROETHANE, 1,1,1-Trichloroethane]	7.5	Hydrophobic		
C=C(Cl)Cl [1,1-DICHLOROETHYLENE, 1,1-Dichloroethylene]	4.6	Hydrophobic		
c1ccc2c(c1)CCCC2 [1,2,3,4-TETRAHYDRONAPHTHALENE, 1,2,3,4-Tetrahydronaphthalene]		Hydrophobic		
ClCCCl [1,2-DICHLOROETHANE, 1,2-Dichloroethane]	10.19	Hydrophobic		
ClC=CCl [1,2-DICHLOROETHYLENE, 1,2-Dichloroethylene]	4.6	Hydrophobic		
COCCOC [1,2-DIMETHOXYETHANE, 1,2-Dimethoxyethane]		Polar		
C1COCCO1 [1,4-DIOXANE, 1,4-Dioxane]	2.21	Polar		
CCCCO [1-BUTANOL, 1-Butanol]	17.7	Hydrophobic/		
CCCCCCCCO [1-OCTANOL, 1-Octanol]	10.3	Hydrophobic/		
CCCCCO [1-PENTANOL, 1-Pentanol]	13.9	Hydrophobic/		
CCCO [1-PROPANOL, 1-Propanol]	20.1	Hydrophobic/		
CCC(C)O (stereo not drawn) [2-BUTANOL, 2-Butanol]	15.8	Hydrophobic/		
CCOCCO [2-ETHOXYETHANOL, 2-Ethoxyethanol]		Hydrophobic/		
COCCO [2-METHOXYETHANOL, 2-Methoxyethanol]		Hydrophobic/		
CC(C)CCO [3-METHYL-1-BUTANOL, 3-Methyl-1-butanol]	14.7	Hydrophobic/		
CC(=O)O [ACETIC-ACID, Acetic acid]	6.13	Complex		
CC(C)=O [ACETONE, Acetone]	20.83	Polar		
CC#N [ACETONITRILE, Acetonitrile]	36.97	Polar		
COc1ccccc1 [ANISOLE, Anisole]	4.3	Hydrophobic		
c1ccccc1 [BENZENE, Benzene]	2.27	Hydrophobic		
ClC(Cl)(Cl)Cl [CARBON-TETRACHLORIDE, Carbon-tetrachloride]	2.23	Hydrophobic		

Molecule	dielectric constant at 298.15 K [1]	Solvent characteristics [2]	solubility ([3]; in chloroform and DMF, 298.15K)	solubility (data) ([3]; in benzene, cyclohexane, and heptane)
Clc1ccccc1 [CHLOROBENZENE, Chlorobenzene]	5.56	Hydrophobic		
ClC(Cl)Cl [CHLOROFORM, Chloroform]		Hydrophobic		
CC(C)c1ccccc1 [CUMENE, Cumene]	2.22	Hydrophobic		
C1CCCCC1 [CYCLOHEXANE, Cyclohexane]	2.02	Hydrophobic		
ClCCl [DICHLOROMETHANE, Dichloromethane]	8.9	Polar		
CCOCC [DIETHYL-ETHER, Diethyl-ether]	4.26	Hydrophobic		
C[S+](C)[O-] [Dimethyl-sulfoxide]	47.2	Polar		
CCO [ETHANOL, Ethanol]	24.11	Hydrophobic/		
CCOC(C)=O [ETHYL-ACETATE, Ethyl-acetate]	6.02	Hydrophobic/Polar		
CCOC=O [ETHYL-FORMATE, Ethyl-formate]	7.16	Polar		
OCCO [Ethylene-glycol]		Hydrophilic		
NC=O [FORMAMIDE, Formamide]	109.5	Complex		
O=CO [FORMIC-ACID, Formic-acid]		Complex		
O=C(CCCN1CCC(O)(c2ccc(Cl)cc2)CC1)c1ccc(F)cc1 [Haloperidol]			unusually high solubilities	
CC(C)CO [ISOBUTANOL, Isobutanol]	17.9	Hydrophobic/		
CC(=O)OCC(C)C [ISOBUTYL-ACETATE, Isobutyl-acetate]	5.6	Polar		
CC(=O)OC(C)C [ISOPROPYL-ACETATE, Isopropyl-acetate]		Polar		
CC(C)O [ISOPROPYL-ALCOHOL, Isopropyl-alcohol]	19.9	Hydrophobic/		
Cc1cccc(C)c1 [M-XYLENE, m-Xylene]	2.24	Hydrophobic		
CO [METHANOL, Methanol]	32.62	Hydrophobic/		
COC(C)=O [METHYL-ACETATE, Methyl-acetate]	6.68	Polar		

Molecule	dielectric constant at 298.15 K [1]	Solvent characteristics [2]	solubility ([3]; in chloroform and DMF, 298.15K)	solubility (data) ([3]; in benzene, cyclohexane, and heptane)
CCC(C)=O [METHYL-ETHYL-KETONE, Methyl-ethyl-ketone]	18.5	Hydrophobic/Polar		
CC(=O)CC(C)C [METHYL-ISOBUTYL-KETONE, Methyl-isobutyl-ketone]	13.1	Hydrophobic/Polar		
COC(C)(C)C [METHYL-TERT-BUTYL-ETHER, Methyl-tert-butyl-ether]	2.6	Hydrophobic		
CC1CCCCC1 [METHYLCYCLOHEXANE, Methylcyclohexane]	2.02	Polar		
CN(C)C=O [N,N-DIMETHYLFORMAMIDE, N,N-Dimethylformamide]	38.3	Polar		
CCCCOC(C)=O [N-BUTYL-ACETATE, n-Butyl-acetate]	5.1	Hydrophobic/Polar		
CCCCCCC [N-HEPTANE, n-Heptane]	1.92	Hydrophobic		
CCCCCC [N-HEXANE, n-Hexane]		Hydrophobic		
CN1CCCC1=O [N-METHYL-2-PYRROLIDONE, N-Methyl-2-pyrrolidone]	33	Hydrophobic		
CCCCC [N-PENTANE, n-Pentane]	1.84	Hydrophobic		
CCCOC(C)=O [N-PROPYL-ACETATE, n-propyl-acetate]	6	Hydrophobic/Polar		
C[N+](=O)[O-] [NITROMETHANE, Nitromethane]	6.26	Polar		
c1ccncc1 [PYRIDINE, Pyridine]		Polar		
O=S1(=O)CCCC1 [SULFOLANE, Sulfolane]	43.3	Polar		
C1CCOC1 [TETRAHYDROFURAN, Tetrahydrofuran]	7.52	Polar		
Cc1ccccc1 [TOLUENE, Toluene]	2.36	Hydrophobic		
ClC=C(Cl)Cl [TRICHLOROETHYLENE, Trichloroethylene]	3.42	Hydrophobic		
CCN(CC)CC [TRIETHYLAMINE, Triethylamine]	2.44	Hydrophobic/Polar		
O [WATER, Water]	78.54	Hydrophilic		
O=C([O-])c1ccccc1O.[Na+] [sodium salicylate]				very low but measurable solubility
methyl-butyl-ketone (2-hexanone)	14.6	Hydrophobic/Polar		

— patent US8666675B2, “Computer method and system for predicting physical properties using a conceptual segment model” (Aspen Technology, Inc., priority 2004, dated 2014)
